According to patent publication US9845330B2, “6-nitro-2,3-dihydroimidazo[2,1-b]oxazoles and a process for the preparation thereof” (priority 2013, dated 2017):
≈ marks a conversion by molar mass, not a printed value.

Assays:
[1] = system: M. tuberculosis XDR (resistant to isoniazid, rifampicin, amikacin and moxifloxacin); assay: microbe, parasite or virus in culture; type: cell-based; conditions: Mycobacterium tuberculosis, 504 h, read-out: MIC M. tb XDR
[2] = system: M. tuberculosis MDR (resistant to isoniazid and rifampicin); assay: microbe, parasite or virus in culture; type: cell-based; conditions: Mycobacterium tuberculosis, 504 h, read-out: MIC M. tb MDR

SMILES | MIC [1] | MIC [2]
CCc1ccc(OCc2cc(-c3ccc(OC[C@@]4(C)Cn5cc([N+](=O)[O-])nc5O4)cc3)no2)cc1 [IC19, (R)-2-{4-[5-(4-ethylphenoxymethyl)isoxazol-3-yl]phenoxymethyl}-2,3-dihydro-2-methyl-6-nitroimidazo[2,1-b]oxazole] | 2 µg/mL (≈ 4.2 µM) | 2 µg/mL (≈ 4.2 µM)
CCC(C)c1ccc(OCc2cc(-c3ccc(OC[C@@]4(C)Cn5cc([N+](=O)[O-])nc5O4)cc3)no2)cc1 (stereo partly drawn) [IC20, (R)-2-{4-[5-(4-sec-butylphenoxymethyl)isoxazol-3-yl]phenoxymethyl}-2,3-dihydro-2-methyl-6-nitroimidazo[2,1-b]oxazole] | 2 µg/mL (≈ 3.96 µM) | 2 µg/mL (≈ 3.96 µM)
C[C@]1(COc2ccc(-c3cc(COc4ccccc4)on3)cc2)Cn2cc([N+](=O)[O-])nc2O1 [IC21, (R)-2-{4-[5-(phenoxymethyl)isoxazol-3-yl]phenoxymethyl}-2,3-dihydro-2-methyl-6-nitroimidazo[2,1-b]oxazole] | 4 µg/mL (≈ 8.92 µM) | 4 µg/mL (≈ 8.92 µM)
C[C@]1(COc2ccc(-c3cc(COc4ccc(F)cc4F)on3)cc2)Cn2cc([N+](=O)[O-])nc2O1 [IC22, (R)-2-{4-[5-(2,4-difluorophenoxymethyl)isoxazol-3-yl]phenoxymethyl}-2,3-dihydro-2-methyl-6-nitroimidazo[2,1-b]oxazole] | 0.12 µg/mL (≈ 0.248 µM) | 0.12 µg/mL (≈ 0.248 µM)
C[C@]1(COc2ccc(NC(=O)Nc3ccc(F)cc3)cc2)Cn2cc([N+](=O)[O-])nc2O1 [IIA1, (R)-1-(4-fluorophenyl)-3-{4-(2-methyl-6-nitro-2,3-dihydroimidazo[2,1-b]oxazol-2-yl)methoxyphenyl}urea] | 2 µg/mL (≈ 4.68 µM) | 2 µg/mL (≈ 4.68 µM)
CCc1ccc(NC(=O)Nc2ccc(OC[C@@]3(C)Cn4cc([N+](=O)[O-])nc4O3)cc2)cc1 [IIA2, (R)-1-(4-ethylphenyl)-3-{4-(2-methyl-6-nitro-2,3-dihydroimidazo[2,1-b]oxazol-2-yl)methoxyphenyl}urea] | 0.5 µg/mL (≈ 1.14 µM) | 0.5 µg/mL (≈ 1.14 µM)
C[C@]1(COc2ccc(NC(=O)Nc3ccc(C(F)(F)F)cc3)cc2)Cn2cc([N+](=O)[O-])nc2O1 [IIA3, (R)-1-(4-trifluoromethylphenyl)-3-{4-(2-methyl-6-nitro-2,3-dihydroimidazo[2,1-b]oxazol-2-yl)methoxyphenyl}urea] | 0.12 µg/mL (≈ 0.251 µM) | 0.12 µg/mL (≈ 0.251 µM)
Cc1ccc(NC(=O)Nc2ccc(OC[C@@]3(C)Cn4cc([N+](=O)[O-])nc4O3)cc2)cc1 [IIA4, (R)-1-(4-methylphenyl)-3-{4-(2-methyl-6-nitro-2,3-dihydroimidazo[2,1-b]oxazol-2-yl)methoxyphenyl}urea] | 0.06 µg/mL (≈ 0.142 µM) | 0.06 µg/mL (≈ 0.142 µM)
COc1ccc(NC(=O)Nc2ccc(OC[C@@]3(C)Cn4cc([N+](=O)[O-])nc4O3)cc2)cc1 [IIA5, (R)-1-(4-methoxyphenyl)-3-{4-(2-methyl-6-nitro-2,3-dihydroimidazo[2,1-b]oxazol-2-yl)methoxyphenyl}urea] | 1 µg/mL (≈ 2.28 µM) | 1 µg/mL (≈ 2.28 µM)
C[C@]1(COc2ccc(NC(=O)Nc3ccc(OC(F)(F)F)cc3)cc2)Cn2cc([N+](=O)[O-])nc2O1 [IIA6, (R)-1-(4-trifluoromethoxyphenyl)-3-{4-(2-methyl-6-nitro-2,3-dihydroimidazo[2,1-b]oxazol-2-yl)methoxyphenyl}urea] | 0.5 µg/mL (≈ 1.01 µM) | 0.5 µg/mL (≈ 1.01 µM)
COc1ccc(NC(=S)Nc2ccc(OC[C@@]3(C)Cn4cc([N+](=O)[O-])nc4O3)cc2)cc1 [IIA7, (R)-1-(4-methoxyphenyl)-3-{4-(2-methyl-6-nitro-2,3-dihydroimidazo[2,1-b]oxazol-2-yl)methoxyphenyl}thiourea] | 2 µg/mL (≈ 4.39 µM) | 2 µg/mL (≈ 4.39 µM)
C[C@]1(COc2ccc(NC(=S)Nc3ccc(OC(F)(F)F)cc3)cc2)Cn2cc([N+](=O)[O-])nc2O1 [IIA8, (R)-1-(4-trifluoromethoxyphenyl)-3-{4-(2-methyl-6-nitro-2,3-dihydroimidazo[2,1-b]oxazol-2-yl)methoxyphenyl}thiourea] | 2 µg/mL (≈ 3.93 µM) | 2 µg/mL (≈ 3.93 µM)
C[C@]1(COc2ccc(NC(=S)Nc3ccc(F)cc3)cc2)Cn2cc([N+](=O)[O-])nc2O1 [IIA9, (R)-1-(4-fluorophenyl)-3-{4-(2-methyl-6-nitro-2,3-dihydroimidazo[2,1-b]oxazol-2-yl)methoxyphenyl}thiourea] | 4 µg/mL (≈ 9.02 µM) | 4 µg/mL (≈ 9.02 µM)
C[C@]1(COc2ccc(NC(=S)Nc3ccc(C(F)(F)F)cc3)cc2)Cn2cc([N+](=O)[O-])nc2O1 [IIA10, (R)-1-(4-trifluoromethylphenyl)-3-{4-(2-methyl-6-nitro-2,3-dihydroimidazo[2,1-b]oxazol-2-yl)methoxyphenyl}thiourea] | 4 µg/mL (≈ 8.11 µM) | 4 µg/mL (≈ 8.11 µM)
Cc1ccc(NS(=O)(=O)c2ccc(OC[C@@]3(C)Cn4cc([N+](=O)[O-])nc4O3)cc2)cc1 [IIB1, (R)-4-{(2-methyl-6-nitro-2,3-dihydroimidazo[2,1-b]oxazol-2-yl)methoxy}-N-(p-tolyl)benzenesulfonamide] | 2 µg/mL (≈ 4.5 µM) | 2 µg/mL (≈ 4.5 µM)
C[C@]1(COc2ccc(S(=O)(=O)Nc3ccc(OC(F)(F)F)cc3)cc2)Cn2cc([N+](=O)[O-])nc2O1 [IIB2, (R)-4-{(2-methyl-6-nitro-2,3-dihydroimidazo[2,1-b]oxazol-2-yl)methoxy}-N-(4 trifluoromethoxyphenyl)benzenesulfonamide] | 2 µg/mL (≈ 3.89 µM) | 2 µg/mL (≈ 3.89 µM)
C[C@]1(COc2ccc(S(=O)(=O)Nc3ccc(C(F)(F)F)cc3)cc2)Cn2cc([N+](=O)[O-])nc2O1 [IIB3, (R)-4-{(2-methyl-6-nitro-2,3-dihydroimidazo[2,1-b]oxazol-2-yl)methoxy}-N-(4 trifluoromethylphenyl)benzenesulfonamide] | 2 µg/mL (≈ 4.01 µM) | 2 µg/mL (≈ 4.01 µM)
CN(c1ccccc1)S(=O)(=O)c1ccc(OC[C@@]2(C)Cn3cc([N+](=O)[O-])nc3O2)cc1 [IIB4, (R)—N-methyl-4-{(2-methyl-6-nitro-2,3-dihydroimidazo[2,1-b]oxazol-2-yl)methoxy}-N-phenylbenzenesulfonamide] | 4 µg/mL (≈ 9 µM) | 4 µg/mL (≈ 9 µM)
Cc1ccc(N(C)S(=O)(=O)c2ccc(OC[C@@]3(C)Cn4cc([N+](=O)[O-])nc4O3)cc2)cc1 [IIB5, (R)—N-methyl-4-{(2-methyl-6-nitro-2,3-dihydroimidazo[2,1-b]oxazol-2-yl)methoxy}-N-(p-tolyl)benzenesulfonamide] | 4 µg/mL (≈ 8.72 µM) | 4 µg/mL (≈ 8.72 µM)
CN(c1ccc(C(F)(F)F)cc1)S(=O)(=O)c1ccc(OC[C@@]2(C)Cn3cc([N+](=O)[O-])nc3O2)cc1 [IIB6, (R)—N-methyl-4-{(2-methyl-6-nitro-2,3-dihydroimidazo[2,1-b]oxazol-2-yl)methoxy}-N-(p-trifluoromethylphenyl)benzenesulfonamide] | 1 µg/mL (≈ 1.95 µM) | 1 µg/mL (≈ 1.95 µM)
C[C@]1(COc2ccc(S(=O)(=O)N3CCN(c4ccccc4)CC3)cc2)Cn2cc([N+](=O)[O-])nc2O1 [IIC1, (R)-2-{4-(4-phenylpiperazin-1-yl)sulfonylphenoxymethyl}-2,3-dihydro-2-methyl-6-nitroimidazo[2,1-b]oxazole] | 1 µg/mL (≈ 2 µM) | 1 µg/mL (≈ 2 µM)
C[C@]1(COc2ccc(S(=O)(=O)N3CCN(c4ccc(F)cc4)CC3)cc2)Cn2cc([N+](=O)[O-])nc2O1 [IIC2, (R)-2-{4-[4-(4-fluorophenyl)piperazin-1-yl]sulfonylphenoxymethyl}-2,3-dihydro-2-methyl-6-nitroimidazo[2,1-b]oxazole] | 2 µg/mL (≈ 3.86 µM) | 2 µg/mL (≈ 3.86 µM)
C[C@]1(COc2ccc(S(=O)(=O)N3CCN(c4cccc(Cl)c4)CC3)cc2)Cn2cc([N+](=O)[O-])nc2O1 [IIC3, (R)-2-{4-[4-(3-chlorophenyl)piperazin-1-yl]sulfonylphenoxymethyl}-2,3-dihydro-2-methyl-6-nitroimidazo[2,1-b]oxazole] | 8 µg/mL (≈ 15 µM) | 8 µg/mL (≈ 15 µM)
C[C@]1(COc2ccc(S(=O)(=O)N3CCN(c4ccc(OC(F)(F)F)cc4)CC3)cc2)Cn2cc([N+](=O)[O-])nc2O1 [IIC4, (R)-2-{4-[4-(4-trifluoromethoxyphenyl)piperazin-1-yl]sulfonylphenoxymethyl}-2,3-dihydro-2-methyl-6-nitroimidazo[2,1-b]oxazole] | 2 µg/mL (≈ 3.43 µM) | 2 µg/mL (≈ 3.43 µM)
CCOC(=O)N1CCN(S(=O)(=O)c2ccc(OC[C@@]3(C)Cn4cc([N+](=O)[O-])nc4O3)cc2)CC1 [IIC5, (R)-ethyl-{4-[4-(2-methyl-6-nitro-2,3-dihydroimidazo[2,1-b]oxazol-2yl)methoxyphenyl]sulfonyl}piperazine-1-carboxylate] | 2 µg/mL (≈ 4.04 µM) | 2 µg/mL (≈ 4.04 µM)
C[C@]1(COc2ccc(S(=O)(=O)N3CCN(C(=O)c4ccccc4)CC3)cc2)Cn2cc([N+](=O)[O-])nc2O1 [IIC6, (R)-{4-[4-(2-methyl-6-nitro-2,3-dihydroimidazo[2,1-b]oxazol-2yl)methoxyphenyl]sulfonyl}piperazine-1-yl(phenyl)methanone] | 2 µg/mL (≈ 3.79 µM) | 2 µg/mL (≈ 3.79 µM)
C[C@]1(COc2ccc(S(=O)(=O)N3CCCCC3)cc2)Cn2cc([N+](=O)[O-])nc2O1 [IIC7, (R)-2-{4-(piperidin-1-ylsulfonyl)phenoxymethyl}-2,3-dihydro-2-methyl-6-nitroimidazo[2,1-b]oxazole] | 1 µg/mL (≈ 2.37 µM) | 1 µg/mL (≈ 2.37 µM)
C[C@]1(COc2ccc(S(=O)(=O)N3CCC(c4ccccc4)CC3)cc2)Cn2cc([N+](=O)[O-])nc2O1 [IIC8, (R)-2-{4-[(4-phenylpiperidin-1-yl)sulfonyl]phenoxymethyl}-2,3-dihydro-2-methyl-6-nitroimidazo[2,1-b]oxazole] | 0.5 µg/mL (≈ 1 µM) | 0.5 µg/mL (≈ 1 µM)
C[C@]1(COc2ccc(S(=O)(=O)N3CCCC3)cc2)Cn2cc([N+](=O)[O-])nc2O1 [IIC9, (R)-2-{4-(pyrrolidin-1-ylsulfonyl)phenoxymethyl}-2,3-dihydro-2-methyl-6-nitroimidazo[2,1-b]oxazole] | 1 µg/mL (≈ 2.45 µM) | 1 µg/mL (≈ 2.45 µM)
C[C@]1(COc2ccc(S(=O)(=O)N3CCOCC3)cc2)Cn2cc([N+](=O)[O-])nc2O1 [IIC10, (R)-2-{4-(morpholinsulfonyl)phenoxymethyl}-2,3-dihydro-2-methyl-6-nitroimidazo[2,1-b]oxazole] | 0.5 µg/mL (≈ 1.18 µM) | 0.5 µg/mL (≈ 1.18 µM)
